Groups on a side chain read outwards from the residue. No end group written: not given here.
Test system: mouse-adapted Dengue virus (DEN-2, strain P23085)
Assay: Dengue virus infection in mice, mortality/survival
Assay type: in vivo, BALB/c mice
Details: 4.8 mg/kg/day intramuscular once a day for 5 days, starting on day 3 after infection, end of treatment period (day 10)
Protocol: A further possibility for establishing the biological effect in vivo is the reduction or complete suppression of mortality because of an infection with haemolytic viruses or bacteria. For this purpose, mice are, as described in Example 8, for instance infected with a dose of Dengue viruses, wherein 50% of the animals die within a period of 5-20 days after infection. The inventive compounds bring about a reduction of this mortality at a dose ranging from 0.001 to 500 mg/kg body weight, preferably at a dose ranging from […] body weight.
The biological effect of the compound of Example 3 was established in a model of Dengue virus infection in mice. 5-week-old male BALB/c mice were divided into 2 groups. All animals were infected subcutaneously with a mouse-adapted Dengue virus (DEN-2, strain P23085 at a dose of 1-2 LD50. 15 mice received 0.1 ml of 0.8% saline as intramuscular injection (control). The treated animals received 4.8 mg/kg/day of the agent of Example 3 as an intramuscular injection (diluted in 0.1 ml of 0.8% saline) once a day for 5 days, starting on day 3 after the virus infection.
At the end of the treatment period (day 10) the survival rates were compared.

Gly-His-Arg-Pro-Leu-Asp-Lys-Lys-Arg-Glu-Glu-Ala-Pro-Ser-Leu-Arg-Pro-Ala-Pro-Pro-Pro-Ile-Ser-Gly-Gly-Gly-Tyr-Arg-Cys-(S-succinimido-PEG20K)-amide (GHRPLDKKREEAPSLRPAPPPISGGGYRC([succinimido-PEG 20 kDa])-NH2) [Example 3]
Mortality (dead animals/animals in group) (infection dose 1-2 LD50): 0/10
Mortality Percentage (p < 0.05 vs control): 0%

Source: patent publication US20110098442A1, “PEPTIDES AND PEPTIDE DERIVATIVES AS WELL AS PHARMACEUTICAL COMPOSITIONS CONTAINING THE SAME” (priority 2006, published 2011)
